# Experimental data as given in publication PMC11912111 (Advanced Healthcare Materials, 2025).
# Read-outs that look alike come from different tables or passages of the source.
# What was measured:
# [1] = cited from earlier work
# [2] = system: GLP-1R; conditions: GL can also activate GLP-1R; cited from earlier work
# [3] = Teduglutide stability in the foam after the gassing process; assay type: physicochemical; conditions: Ted-loaded foam and effervescence-like formulation, n = 3 (Figure S3)
substance,measurement,setting,value
Glepaglutide,elimination half-life,[1]; in humans,up to 50 h
same,binding affinity at GLP-1R,[2],low binding affinity
Glucagon-like peptide 2 [GLP-2],elimination half-life,"[1]; native GLP-2, healthy individuals, breakdown by DPP-4",7 min
teduglutide,stability of Ted after the foaming process (concentration change),[3],degraded after the foaming process
